# Experimental data taken from ChEMBL document CHEMBL5620408, “Discovery of novel diarypyrimidine derivatives bearing six-membered non-aromatic heterocycles as potent HIV-1 NNRTIs with improved anti-resistance and drug-like profiles” (Eur J Med Chem, 2023).
# What was measured:
# [1] = Cytotoxicity against human MT4 cells assessed as reduction in cell viability by MTT assay; format: toxicity, cell-based
# [2] = Selectivity index, ratio of CC50 for human MT4 cells to EC50 for antiviral activity against HIV IIIB
# [3] = Selectivity index, ratio of CC50 for human MT4 cells to EC50 for antiviral activity against HIV RES056
# [4] = tested on: Human immunodeficiency virus 1; test: Potency index, ratio of zidovudine EC50 to test compound EC50 for antiviral activity against HIV1 IIIB; format: functional
# [5] = tested on: Human immunodeficiency virus 1; test: Potency index, ratio of (E)-3-[3,5-dimethyl-4-[2-[4-[(4-methylsulfonylpiperazin-1-yl)methyl]anilino]pyrimidin-4-yl]oxy-phenyl]prop-2-enenitrile EC50 to test compound EC50 for antiviral activity against HIV1 IIIB; format: functional
# [6] = tested on: Human immunodeficiency virus 1; test: Potency index, ratio of nevirapine EC50 to test compound EC50 for antiviral activity against HIV1 IIIB; format: functional
# [7] = tested on: Human immunodeficiency virus 1; test: Potency index, ratio of etravirine EC50 to test compound EC50 for antiviral activity against HIV1 IIIB; format: functional
# [8] = tested on: Human immunodeficiency virus 1; test: Potency index, ratio of efavirenz EC50 to test compound EC50 for antiviral activity against HIV1 IIIB; format: functional
# [9] = tested on: Human immunodeficiency virus 1; test: Antiviral activity against HIV1 harboring L100I mutant infected in MT4 cells; format: functional, organism-based; conditions: Human immunodeficiency virus 1, MT4
# [10] = tested on: Human immunodeficiency virus 1; test: Antiviral activity against HIV1 harboring K103N mutant infected in MT4 cells; format: functional, organism-based; conditions: Human immunodeficiency virus 1, MT4
# [11] = tested on: Human immunodeficiency virus 1; test: Antiviral activity against HIV1 harboring Y181C mutant infected in MT4 cells; format: functional, organism-based; conditions: Human immunodeficiency virus 1, MT4
# [12] = tested on: Human immunodeficiency virus 1; test: Antiviral activity against HIV1 harboring Y188L mutant infected in MT4 cells; format: functional, organism-based; conditions: Human immunodeficiency virus 1, MT4
# [13] = tested on: Human immunodeficiency virus 1; test: Antiviral activity against HIV1 harboring E138K mutant infected in MT4 cells; format: functional, organism-based; conditions: Human immunodeficiency virus 1, MT4
# [14] = tested on: Human immunodeficiency virus 1; test: Antiviral activity against HIV1 harboring F227L/V106A double mutant infected in MT4 cells; format: functional, organism-based; conditions: Human immunodeficiency virus 1, MT4
# [15] = molecular target: Human immunodeficiency virus type 1 reverse transcriptase (Human immunodeficiency virus 1, UniProt Q72547); test: Inhibition of wild type HIV-1 reverse transcriptase
# Cytochrome P450 1A2 = molecular target: T1, Cytochrome P450 1A2 (Homo sapiens, UniProt P05177); test: Inhibition of CYP1A2 (unknown origin); format: ADME
# T1 sequence (P05177 whole entry): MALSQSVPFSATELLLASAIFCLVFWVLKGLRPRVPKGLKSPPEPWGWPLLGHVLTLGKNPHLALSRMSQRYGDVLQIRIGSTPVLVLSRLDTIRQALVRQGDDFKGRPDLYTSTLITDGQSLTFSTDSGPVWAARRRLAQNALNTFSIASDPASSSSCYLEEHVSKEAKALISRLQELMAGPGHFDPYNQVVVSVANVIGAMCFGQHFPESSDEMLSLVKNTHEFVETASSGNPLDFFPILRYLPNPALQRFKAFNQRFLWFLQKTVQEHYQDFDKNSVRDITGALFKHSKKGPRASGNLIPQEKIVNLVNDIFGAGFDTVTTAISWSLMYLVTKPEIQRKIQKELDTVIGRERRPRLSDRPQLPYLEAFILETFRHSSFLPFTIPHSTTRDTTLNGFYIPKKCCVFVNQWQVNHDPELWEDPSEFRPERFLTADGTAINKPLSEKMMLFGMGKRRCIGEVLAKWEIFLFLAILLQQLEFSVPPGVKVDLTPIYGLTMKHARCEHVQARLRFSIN
# Cytochrome P450 2C9 = Cytochrome P450 2C9 (Homo sapiens, UniProt P11712); test: Inhibition of CYP2C9 (unknown origin); format: ADME
# Sequence of Cytochrome P450 2C9 (P11712 whole entry): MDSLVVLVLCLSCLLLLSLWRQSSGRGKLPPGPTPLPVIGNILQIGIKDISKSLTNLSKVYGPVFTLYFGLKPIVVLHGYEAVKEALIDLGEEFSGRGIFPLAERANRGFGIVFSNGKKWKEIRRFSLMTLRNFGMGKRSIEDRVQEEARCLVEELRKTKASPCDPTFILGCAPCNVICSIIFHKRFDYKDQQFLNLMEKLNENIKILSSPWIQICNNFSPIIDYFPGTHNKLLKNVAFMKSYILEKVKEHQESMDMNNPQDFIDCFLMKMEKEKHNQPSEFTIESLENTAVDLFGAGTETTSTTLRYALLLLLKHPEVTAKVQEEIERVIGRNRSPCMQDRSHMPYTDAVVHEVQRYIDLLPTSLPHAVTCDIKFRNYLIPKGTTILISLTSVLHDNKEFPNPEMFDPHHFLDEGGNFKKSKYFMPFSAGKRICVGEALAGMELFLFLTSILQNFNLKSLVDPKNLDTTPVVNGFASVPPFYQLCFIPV
# Cytochrome P450 2C19 = Cytochrome P450 2C19 (Homo sapiens, UniProt P33261); test: Inhibition of CYP2C19 (unknown origin); format: ADME
# Sequence of Cytochrome P450 2C19 (P33261 whole entry): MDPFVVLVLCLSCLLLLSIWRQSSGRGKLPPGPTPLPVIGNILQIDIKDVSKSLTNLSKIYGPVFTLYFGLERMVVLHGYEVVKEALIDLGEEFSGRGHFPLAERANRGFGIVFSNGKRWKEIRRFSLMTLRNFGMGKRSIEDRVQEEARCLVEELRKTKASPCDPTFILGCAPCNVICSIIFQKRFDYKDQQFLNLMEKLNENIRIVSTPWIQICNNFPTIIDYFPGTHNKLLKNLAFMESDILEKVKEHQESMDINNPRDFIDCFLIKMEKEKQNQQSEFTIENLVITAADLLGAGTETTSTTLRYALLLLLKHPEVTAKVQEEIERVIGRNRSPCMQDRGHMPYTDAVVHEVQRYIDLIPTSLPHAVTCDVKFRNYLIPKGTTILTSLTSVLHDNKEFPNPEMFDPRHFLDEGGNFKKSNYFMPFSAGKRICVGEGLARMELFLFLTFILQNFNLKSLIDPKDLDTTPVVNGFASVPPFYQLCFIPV
# Cytochrome P450 2D6 = Cytochrome P450 2D6 (Homo sapiens, UniProt P10635); test: Inhibition of CYP2D6 (unknown origin); format: ADME
# Sequence of Cytochrome P450 2D6 (P10635 whole entry): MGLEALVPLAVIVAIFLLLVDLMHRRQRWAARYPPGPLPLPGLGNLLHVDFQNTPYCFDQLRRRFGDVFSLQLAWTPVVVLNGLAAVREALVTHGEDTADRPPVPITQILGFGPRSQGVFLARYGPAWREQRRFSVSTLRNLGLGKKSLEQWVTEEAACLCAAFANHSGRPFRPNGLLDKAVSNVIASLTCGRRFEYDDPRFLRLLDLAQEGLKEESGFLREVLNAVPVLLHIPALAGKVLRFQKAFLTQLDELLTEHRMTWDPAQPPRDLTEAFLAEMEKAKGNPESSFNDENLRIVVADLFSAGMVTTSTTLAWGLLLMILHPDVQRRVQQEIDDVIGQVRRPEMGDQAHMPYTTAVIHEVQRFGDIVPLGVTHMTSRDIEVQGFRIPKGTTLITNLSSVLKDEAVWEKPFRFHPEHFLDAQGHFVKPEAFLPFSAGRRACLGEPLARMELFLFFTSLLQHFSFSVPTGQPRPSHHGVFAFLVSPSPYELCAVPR
# Cytochrome P450 3A4 = Cytochrome P450 3A4 (Homo sapiens, UniProt P08684); test: Inhibition of CYP3A4 (unknown origin); format: ADME
# Sequence of Cytochrome P450 3A4 (P08684 whole entry): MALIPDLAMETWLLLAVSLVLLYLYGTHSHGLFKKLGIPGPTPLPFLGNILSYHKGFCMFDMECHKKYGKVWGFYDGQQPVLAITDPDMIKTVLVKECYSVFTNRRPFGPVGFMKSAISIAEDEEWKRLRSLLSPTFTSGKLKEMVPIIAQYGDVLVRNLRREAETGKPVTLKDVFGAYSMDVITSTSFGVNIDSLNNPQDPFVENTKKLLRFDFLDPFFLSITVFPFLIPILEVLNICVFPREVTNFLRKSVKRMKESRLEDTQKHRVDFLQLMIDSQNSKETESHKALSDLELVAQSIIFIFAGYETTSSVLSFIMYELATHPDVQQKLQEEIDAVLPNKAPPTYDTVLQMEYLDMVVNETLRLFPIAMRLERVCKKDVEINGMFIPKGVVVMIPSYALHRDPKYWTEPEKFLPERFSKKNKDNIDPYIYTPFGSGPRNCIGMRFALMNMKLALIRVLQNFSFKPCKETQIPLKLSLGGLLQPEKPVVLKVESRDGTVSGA
# [16] = Half life in Sprague-Dawley rat at 2 mg/kg, iv; format: ADME, organism-based; conditions: in vivo
# [17] = Cmax in Sprague-Dawley rat at 2 mg/kg, iv; format: ADME, organism-based; conditions: in vivo
# [18] = AUCt in Sprague-Dawley rat at 2 mg/kg, iv; format: ADME, organism-based; conditions: in vivo
# [19] = AUCinfinity in Sprague-Dawley rat at 2 mg/kg, iv; format: ADME, organism-based; conditions: in vivo
# [20] = Volume of distribution in Sprague-Dawley rat at 2 mg/kg, iv; format: ADME, organism-based; conditions: in vivo
# [21] = Clearance in Sprague-Dawley rat at 2 mg/kg, iv; format: ADME, organism-based; conditions: in vivo
# [22] = tested on: Human immunodeficiency virus 1; test: Potency index, ratio of (E)-3-[3,5-dimethyl-4-[2-[4-[(4-methylsulfonylpiperazin-1-yl)methyl]anilino]pyrimidin-4-yl]oxy-phenyl]prop-2-enenitrile EC50 to test compound EC50 for antiviral activity against HIV1 harboring K103 N mutant; format: functional
# [23] = tested on: Human immunodeficiency virus 1; test: Potency index, ratio of nevirapine EC50 to test compound EC50 for antiviral activity against HIV1 harboring K103 N mutant; format: functional
# [24] = tested on: Human immunodeficiency virus 1; test: Potency index, ratio of etravirine EC50 to test compound EC50 for antiviral activity against HIV1 harboring K103 N mutant; format: functional
# [25] = tested on: Human immunodeficiency virus 1; test: Potency index, ratio of efavirenz EC50 to test compound EC50 for antiviral activity against HIV1 harboring K103 N mutant; format: functional
# [26] = tested on: Human immunodeficiency virus 1; test: Potency index, ratio of etravirine EC50 to test compound EC50 for antiviral activity against HIV1 harboring E138K mutant; format: functional
# [27] = tested on: Human immunodeficiency virus 1; test: Potency index, ratio of (E)-3-[3,5-dimethyl-4-[2-[4-[(4-methylsulfonylpiperazin-1-yl)methyl]anilino]pyrimidin-4-yl]oxy-phenyl]prop-2-enenitrile EC50 to test compound EC50 for antiviral activity against HIV1 harboring F227L/V106A double mutant; format: functional
# [28] = tested on: Human immunodeficiency virus 1; test: Potency index, ratio of efavirenz EC50 to test compound EC50 for antiviral activity against HIV1 harboring F227L/V106A double mutant; format: functional
# [29] = tested on: Human immunodeficiency virus 1; test: microbe, parasite or virus in culture; conditions: Human immunodeficiency virus 1, IIIB, MT4
# Description: Antiviral activity against HIV1 IIIB infected in MT-4 cells assessed as viral induced cytopathic effect by MTT assay
# [30] = tested on: Human immunodeficiency virus 1; test: microbe, parasite or virus in culture; conditions: Human immunodeficiency virus 1, RES056, MT4
# Description: Antiviral activity against HIV1 RES056 infected in MT-4 cells assessed as viral induced cytopathic effect by MTT assay
structure (smiles),measurement,setting,value
Cc1cc(/C=C/C#N)cc(C)c1Oc1ccnc(Nc2ccc(N3CCS(=O)(=O)CC3)c(F)c2)n1,CC50,[1],15800 nM
same,selectivity ratio,[2],15500
same,selectivity ratio,[3],86
same,Ratio EC50,[4],32
same,Ratio EC50,[5],2.7
same,Ratio EC50,[6],190
same,Ratio EC50,[7],3.3
same,Ratio EC50,[8],3.7
same,EC50,[9],5 nM
same,EC50,[10],1 nM
same,EC50,[11],8 nM
same,EC50,[12],1170 nM
same,EC50,[13],6 nM
same,EC50,[14],24 nM
same,IC50,[15],23 nM
same,IC50,Cytochrome P450 1A2,21200 nM
same,IC50,Cytochrome P450 2C9,5570 nM
same,IC50,Cytochrome P450 2C19,5280 nM
same,IC50,Cytochrome P450 2D6,14800 nM
same,IC50,Cytochrome P450 3A4,> 100000 nM
same,half-life,[16],6.59 h
same,Cmax,[17],390 ng/mL
same,AUC(0-t),[18],297 ng·h/mL
same,AUC(0-inf),[19],316 ng·h/mL
same,Vd,[20],60.1 L/kg
same,clearance,[21],106 mL/min/kg
same,Ratio EC50,[22],3.4
same,Ratio EC50,[23],5490
same,Ratio EC50,[24],3.9
same,Ratio EC50,[25],10.9
same,Ratio EC50,[26],3.1
same,Ratio EC50,[27],10
same,Ratio EC50,[28],10
same,EC50,[29],1 nM
same,EC50,[30],180 nM
